Assay results published in article PMC5910287 (ACS chemical biology, 2018).

System: L. lactis HP
Experiment: Minimal inhibitory concentrations determined in liquid media
Format: cell-based, Lactococcus lactis
Settings: serial two-fold dilution, Fig. S12

In the case of lacticin 481 [wt-lacticin 481], the Minimal inhibitory concentration is reported as 0.39 µM.
